Measurements from publication PMC10425210 (The Journal of Clinical Investigation, 2023).
Where two headings read alike, the source gives them in different places.

Test: Plasma pharmacokinetics after a single subcutaneous administration of LEN
Assay type: in vivo, rhesus macaques
Conditions: male, rhesus monkey, plasma; for concentration at 9 week: week 9 post dose; for concentration at 10 week: week 10 post dose; for concentration at 11 week: week 11 post dose; for concentration at 12 week: week 12 post dose; for concentration at 13 week: week 13 post dose; for concentration at 14 week: week 14 post dose; for concentration at 15 week: week 15 post dose; for concentration at 16 week: week 16 post dose; for concentration at 17 weeks post challenge: week 17 post challenge; for concentration at 18 weeks post challenge: week 18 post challenge; for concentration at 0 weeks post challenge: week 0 post challenge; for concentration at 1 weeks post challenge: week 1 post challenge; for concentration at 2 weeks post challenge: week 2 post challenge; for concentration at 3 weeks post challenge: week 3 post challenge; for concentration at 4 weeks post challenge: week 4 post challenge; for concentration at 5 weeks post challenge: week 5 post challenge; for concentration at 6 weeks post challenge: week 6 post challenge; for concentration at 7 weeks post challenge: week 7 post challenge; for concentration at 0.14 week / concentration at 0.43 week / concentration at 1 week / concentration at 2 week / concentration at 17 week / concentration at 18 week / concentration at 19 week / concentration at 20 week / concentration at 21 week / concentration at 22 week / concentration at 23 week / concentration at 24 week / concentration at 25 week: Indian-origin, outbred; for concentration at 0.14 week: week 0.14 post dose; for concentration at 0.43 week: week 0.43 post dose; for concentration at 1 week: week 1 post dose; for concentration at 2 week: week 2 post dose; for concentration at 17 week: week 17 post dose; for concentration at 18 week: week 18 post dose; for concentration at 19 week: week 19 post dose; for concentration at 20 week: week 20 post dose; for concentration at 21 week: week 21 post dose; for concentration at 22 week: week 22 post dose; for concentration at 23 week: week 23 post dose; for concentration at 24 week: week 24 post dose; for concentration at 25 week: week 25 post dose; for half-life: sc; for concentration at 3 weeks: week 3 post dose; for concentration at 4 weeks: week 4 post dose; for concentration at 5 weeks: week 5 post dose; for concentration at 6 weeks: week 6 post dose
Protocol: All animals were housed at Bioqual Inc. For the in vivo SHIV stock titration study, 8 untreated outbred Indian-origin male rhesus macaques aged 3–5 years were challenged intrarectally per round for a total of 5 challenge rounds using increasing virus doses ranging from 0.625 to 100 TCID50, with the 100 TCID50 round performed twice for increased resolution (Supplemental Table 2). Plasma viral load was measured to confirm the infection status. […] Injection sites were monitored daily by veterinary staff for 2 weeks and then weekly through the end of study. On week 7, 11 animals were challenged by the intrarectal route with 1 mL RPMI containing 100 TCID50 SHIV-SF162P3. Whole blood was collected and processed into plasma and PBMCs as necessary for the assessment of routine hematology and clinical chemistry, viral load analysis, serology, and the bioanalysis of drug levels. Animals were considered protected if they remained SHIV negative by a plasma PCR assay and seronegative by enzyme immunoassay through week 10 after challenge.
Rhesus plasma samples were stored frozen at –80°C and thawed, and a 50 μL aliquot of each was treated with 200 μL acetonitrile containing an internal standard. After precipitation of the protein component, a 100 μL aliquot of the supernatant was transferred to a clean 96-well plate and mixed with 200 μL water. A 10 μL aliquot of the above solution was then injected into a Q-Exactive high resolution mass spectrometer from Thermo Electron with electrospray ionization in positive mode.

[1] = Indian-origin (outbred), subcutaneous, 50 mg/kg, Plasma LEN (Mean), 50 mg/kg sc
[2] = Indian-origin (outbred), subcutaneous, 50 mg/kg, Plasma LEN, animal CO92, 50 mg/kg
[3] = Indian-origin (outbred), subcutaneous, 50 mg/kg, Plasma LEN, animal V411, 50 mg/kg
[4] = Indian-origin (outbred), subcutaneous, 50 mg/kg, Plasma LEN, animal V430, 50 mg/kg
[5] = Indian-origin (outbred), subcutaneous, 50 mg/kg, Plasma LEN, animal V470, 50 mg/kg
[6] = Indian-origin (outbred), subcutaneous, 75 mg/kg, Plasma LEN (Mean), 75 mg/kg sc
[7] = Indian-origin (outbred), subcutaneous, 75 mg/kg, Plasma LEN, animal CP67, 75 mg/kg
[8] = Indian-origin (outbred), subcutaneous, 75 mg/kg, Plasma LEN, animal V417, 75 mg/kg
[9] = Indian-origin (outbred), subcutaneous, 75 mg/kg, Plasma LEN, animal V426, 75 mg/kg
[10] = Indian-origin (outbred), subcutaneous, 75 mg/kg, Plasma LEN, animal V435, 75 mg/kg
[11] = subcutaneous, 5 mg/kg, Plasma LEN (Mean), 5 mg/kg sc
[12] = subcutaneous, 10 mg/kg, Plasma LEN (Mean), 10 mg/kg sc
[13] = subcutaneous, 20 mg/kg, Plasma LEN (Mean), 20 mg/kg sc
[14] = subcutaneous, 50 mg/kg, Plasma LEN (Mean), 50 mg/kg sc
[15] = subcutaneous, 75 mg/kg, Plasma LEN (Mean), 75 mg/kg sc
[16] = outbred Indian-origin, subcutaneous, 5 mg/kg, Plasma LEN (Mean), 5 mg/kg sc
[17] = outbred Indian-origin, subcutaneous, 10 mg/kg, Plasma LEN (Mean), 10 mg/kg sc
[18] = outbred Indian-origin, subcutaneous, 20 mg/kg, Plasma LEN (Mean), 20 mg/kg sc
[19] = outbred Indian-origin, subcutaneous, 50 mg/kg, Plasma LEN (Mean), 50 mg/kg sc
[20] = outbred Indian-origin, subcutaneous, 75 mg/kg, Plasma LEN (Mean), 75 mg/kg sc
[21] = outbred Indian-origin, 50 mg/kg sc, mean ± SD

CC(C)(C#Cc1ccc(-c2ccc(Cl)c3c(NS(C)(=O)=O)nn(CC(F)(F)F)c23)c([C@H](Cc2cc(F)cc(F)c2)NC(=O)Cn2nc(C(F)(F)F)c3c2C(F)(F)[C@@H]2C[C@H]32)n1)S(C)(=O)=O [LEN, Lenacapavir]
concentration at 9 week [1]: 51.7 nM
concentration at 10 week [1]: 48.7 nM
concentration at 11 week [1]: 45.5 nM
concentration at 12 week [1]: 37.9 nM
concentration at 13 week [1]: 37.9 nM
concentration at 14 week [1]: 21 nM
concentration at 15 week [1]: 18.4 nM
concentration at 16 week [1]: 22.2 nM
concentration at 17 weeks post challenge [2]: 13.6 nM
concentration at 18 weeks post challenge [2]: 13.1 nM
concentration at 17 weeks post challenge [3]: 2.22 nM
concentration at 18 weeks post challenge [3]: 2 nM
concentration at 16 weeks post challenge (Indian-origin (outbred), subcutaneous, 50 mg/kg, Plasma LEN, animal V430, 50 mg/kg, week 16 post challenge): 1.24 nM
concentration at 17 weeks post challenge [4]: 1 nM
concentration at 18 weeks post challenge [4]: 1 nM
concentration at 17 weeks post challenge [5]: 8.55 nM
concentration at 18 weeks post challenge [5]: 10.5 nM
concentration at 8 week (Indian-origin (outbred), subcutaneous, 75 mg/kg, Plasma LEN (Mean), 75 mg/kg sc, week 8 post dose): 55 nM
concentration at 9 week [6]: 72.6 nM
concentration at 10 week [6]: 98 nM
concentration at 11 week [6]: 71.3 nM
concentration at 12 week [6]: 53.5 nM
concentration at 13 week [6]: 73.8 nM
concentration at 14 week [6]: 37.9 nM
concentration at 15 week [6]: 24.6 nM
concentration at 16 week [6]: 30.9 nM
concentration at 0 weeks post challenge [7]: 154 nM
concentration at 1 weeks post challenge [7]: 95.4 nM
concentration at 2 weeks post challenge [7]: 136 nM
concentration at 3 weeks post challenge [7]: 144 nM
concentration at 4 weeks post challenge [7]: 88.1 nM
concentration at 5 weeks post challenge [7]: 87.8 nM
concentration at 6 weeks post challenge [7]: 97.6 nM
concentration at 7 weeks post challenge [7]: 46.5 nM
concentration at 0 weeks post challenge [8]: 158 nM
concentration at 1 weeks post challenge [8]: 43.9 nM
concentration at 2 weeks post challenge [8]: 52.5 nM
concentration at 3 weeks post challenge [8]: 88.5 nM
concentration at 4 weeks post challenge [8]: 69 nM
concentration at 5 weeks post challenge [8]: 48.8 nM
concentration at 6 weeks post challenge [8]: 57.3 nM
concentration at 7 weeks post challenge [8]: 43.9 nM
concentration at 0 weeks post challenge [9]: 178 nM
concentration at 1 weeks post challenge [9]: 68 nM
concentration at 2 weeks post challenge [9]: 89.7 nM
concentration at 3 weeks post challenge [9]: 144 nM
concentration at 4 weeks post challenge [9]: 117 nM
concentration at 5 weeks post challenge [9]: 68.2 nM
concentration at 6 weeks post challenge [9]: 132 nM
concentration at 7 weeks post challenge [9]: 57.4 nM
concentration at 0 weeks post challenge [10]: 28.2 nM
concentration at 1 weeks post challenge [10]: 12.5 nM
concentration at 2 weeks post challenge [10]: 12.4 nM
concentration at 3 weeks post challenge [10]: 14.8 nM
concentration at 4 weeks post challenge [10]: 11.2 nM
concentration at 5 weeks post challenge [10]: 9.22 nM
concentration at 6 weeks post challenge [10]: 8.59 nM
concentration at 0.14 week [11]: 9.76 nM
concentration at 0.43 week [11]: 5.72 nM
concentration at 1 week [11]: 2.82 nM
concentration at 2 week [11]: 2.96 nM
concentration at 0.14 week [12]: 19.9 nM
concentration at 0.43 week [12]: 13.4 nM
concentration at 1 week [12]: 6.88 nM
concentration at 2 week [12]: 8.58 nM
concentration at 0.14 week [13]: 41.3 nM
concentration at 0.43 week [13]: 17.8 nM
concentration at 1 week [13]: 9.23 nM
concentration at 2 week [13]: 16.6 nM
concentration at 0.14 week [14]: 196 nM
concentration at 0.43 week [14]: 79 nM
concentration at 1 week [14]: 56.5 nM
concentration at 2 week [14]: 87.1 nM
concentration at 17 week [14]: 22.1 nM
concentration at 18 week [14]: 17 nM
concentration at 19 week [14]: 11.1 nM
concentration at 20 week [14]: 8.52 nM
concentration at 21 week [14]: 6.49 nM
concentration at 22 week [14]: 7.23 nM
concentration at 23 week [14]: 5.76 nM
concentration at 24 week [14]: 6.32 nM
concentration at 25 week [14]: 6.61 nM
concentration at 0.14 week [15]: 498 nM
concentration at 0.43 week [15]: 223 nM
concentration at 1 week [15]: 162 nM
concentration at 2 week [15]: 213 nM
concentration at 17 week [15]: 24.5 nM
concentration at 18 week [15]: 20.9 nM
concentration at 19 week [15]: 16.2 nM
concentration at 20 week [15]: 16.6 nM
concentration at 21 week [15]: 12.3 nM
concentration at 22 week [15]: 9.35 nM
concentration at 23 week [15]: 10.3 nM
concentration at 24 week [15]: 11.8 nM
concentration at 25 week [15]: 11.6 nM
half-life (outbred Indian-origin, 5-75 mg/kg sc, read-out: plasma drug half-life): 14 to 56 days
half-life (outbred Indian-origin, single sc dosing, range over 5-75 mg/kg groups, read-out: half-life): 17 to 53 days
concentration at 3 weeks [16]: 4.23 nM
concentration at 4 weeks [16]: 4.14 nM
concentration at 5 weeks [16]: 6 nM
concentration at 6 weeks [16]: 4.42 nM
concentration at 7 weeks (outbred Indian-origin, subcutaneous, 5 mg/kg, Plasma LEN (Mean), 5 mg/kg sc, week 7 post dose): 5.29 nM
concentration at 3 weeks [17]: 11.3 nM
concentration at 4 weeks [17]: 10.2 nM
concentration at 5 weeks [17]: 12.8 nM
concentration at 6 weeks [17]: 7.32 nM
concentration at 7 weeks (outbred Indian-origin, subcutaneous, 10 mg/kg, Plasma LEN (Mean), 10 mg/kg sc, week 7 post dose): 10.1 nM
concentration at 3 weeks [18]: 21.2 nM
concentration at 4 weeks [18]: 23.9 nM
concentration at 5 weeks [18]: 30.1 nM
concentration at 6 weeks [18]: 26.8 nM
concentration at 7 weeks (outbred Indian-origin, subcutaneous, 20 mg/kg, Plasma LEN (Mean), 20 mg/kg sc, week 7 post dose): 27.4 nM
concentration at 3 weeks [19]: 92.4 nM
concentration at 4 weeks [19]: 85.3 nM
concentration at 5 weeks [19]: 80.6 nM
concentration at 6 weeks [19]: 71.9 nM
concentration at 7 weeks (outbred Indian-origin, subcutaneous, 50 mg/kg, Plasma LEN (Mean), 50 mg/kg sc, week 7 post dose): 103 nM
concentration at 3 weeks [20]: 126 nM
concentration at 4 weeks [20]: 95.8 nM
concentration at 5 weeks [20]: 89.9 nM
concentration at 6 weeks [20]: 65.1 nM
concentration at 7 weeks (outbred Indian-origin, subcutaneous, 75 mg/kg, Plasma LEN (Mean), 75 mg/kg sc, week 7 post dose): 129 nM
concentration at 7 weeks (outbred Indian-origin, subcutaneous, LEN exposures at the time of challenge, 11 challenged animals, week 7 postdose): 18 to 177 nM
AUC(0-t) (outbred Indian-origin, 5 mg/kg sc, mean ± SD): 9.3 ± 1.9 µM·h
AUC(0-inf) [21]: 243 ± 70 µM·h
AUC(0-t) [21]: 179 ± 23 µM·h
Cmax [21]: 200 ± 74 nM
